pIC50: −log10 of the molar value.

What is called pIC50 is −log10 of the IC50, conventionally taken in molar units. Low values mean a high IC50, high ones a low IC50.

Type in all cases: cell-based
The target in assay [1] is T1, murine CCR2 (Mus musculus, UniProt P51683).
T1 construct: host or cells: U2OS β-arrestin cell line
In words: Functional β-arrestin recruiting test with human MCP-1 (B-2a). The note with it: U2OS β-arrestin cell line transfected with murine CCR2; agonist human MCP-1 at EC50 (about 3 nM); in some cases means of several determinations. Summed up:
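Antagonist mode in U2OS cells expressing murine CCR2, read by PathHunter β-galactosidase complementation luminescence. Cells pre-incubated 10 min with 10-point compound dilutions (1:3.16 steps), then stimulated with human MCP-1 at its EC50 (usually about 3 nM) for 90 min at 37° C.; IC50 from 4-parameter logistic fit.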
(In general: Activated receptors often draw arrestin, which recruitment assays turn into a signal.)

A further assay has as its target T2, human CCR2 (Homo sapiens, UniProt P41597).
T2 construct: host or cells: Chem-1 cell line
T2 sequence (P41597 1-360 isoform P41597-2): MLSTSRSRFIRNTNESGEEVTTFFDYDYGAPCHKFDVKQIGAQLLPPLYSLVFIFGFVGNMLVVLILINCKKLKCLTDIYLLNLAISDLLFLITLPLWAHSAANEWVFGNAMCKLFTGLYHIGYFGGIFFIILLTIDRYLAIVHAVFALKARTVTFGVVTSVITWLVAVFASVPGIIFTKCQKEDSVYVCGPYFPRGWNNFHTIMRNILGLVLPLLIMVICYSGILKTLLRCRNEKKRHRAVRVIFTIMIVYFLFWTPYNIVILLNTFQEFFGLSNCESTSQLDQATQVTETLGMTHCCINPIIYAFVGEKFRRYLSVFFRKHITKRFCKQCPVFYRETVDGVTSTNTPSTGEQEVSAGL
The assay is described as follows: Functional Ca2+ release test (B-1). The note with it: Chem-1 cell line transfected with human CCR2; 50% inhibition of the MCP-1 effect, MCP-1 at EC50 (about 5 nM); in some cases means of several determinations. The procedure, abridged: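 Inhibition of MCP-1-evoked Ca2+ release was measured over 120 s by fluorescence imaging in Fluo-4-loaded, human CCR2-transfected Chem-1 cells. Compounds, tested in 10-point 1:3.16 series, were added 10 min before agonist at its EC50 (typically about 5 nM). IC50 values were obtained by 4-parameter logistic fitting.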

The target of assay [2] is T1, murine CCR2. The assay is described as follows: Functional β-arrestin recruiting test with murine MCP-1 (B-2b). The note with it: U2OS β-arrestin cell line transfected with murine CCR2; agonist murine MCP-1; in some cases means of several determinations. Summed up:
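In a PathHunter β-galactosidase complementation assay, U2OS cells expressing murine CCR2 were preincubated 10 min with compound (10-point, 1:3.16 dilutions), then challenged with murine MCP-1 at its predetermined EC50 for 90 min at 37 °C. Luminescence was read after 60 min, and IC50 was fitted with a 4-parameter Hill function.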

T1 sequence (P51683 whole entry): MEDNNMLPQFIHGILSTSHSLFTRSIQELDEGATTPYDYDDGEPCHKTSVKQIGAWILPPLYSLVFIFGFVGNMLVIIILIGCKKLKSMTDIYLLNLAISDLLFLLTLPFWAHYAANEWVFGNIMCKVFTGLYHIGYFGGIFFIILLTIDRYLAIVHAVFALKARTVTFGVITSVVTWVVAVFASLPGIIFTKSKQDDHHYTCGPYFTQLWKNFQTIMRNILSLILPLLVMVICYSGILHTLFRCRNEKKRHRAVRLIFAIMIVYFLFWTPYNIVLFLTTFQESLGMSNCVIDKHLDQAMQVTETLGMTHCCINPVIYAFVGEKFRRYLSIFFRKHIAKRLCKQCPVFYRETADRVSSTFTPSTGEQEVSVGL

With “5-(3,4-dichlorobenzyl-2-(3-methoxypyridin-2-yl)-6-(trifluoromethyl)pyrimidin-4(3H)-one [Example 23]”, the pIC50 was 7.60 at murine CCR2 [1], 9.40 on human CCR2 and 6.87 at murine CCR2 [2].

For `O=c1[nH]c(-c2ccccn2)nc(C(F)(F)F)c1Oc1ccc(F)c(Cl)c1` [Example 2, 5-(3-chloro-4-fluorophenoxy)-2-(pyridin-2-yl)-6-(trifluoromethyl)pyrimidin-4(3H)-one], the pIC50 at murine CCR2 [1] was 7.06; on human CCR2, 8.35; at murine CCR2 [2], 5.98.

Consider `O=c1[nH]c(-c2ccccn2)nc(C(F)(F)F)c1Oc1ccc(Cl)c(Cl)c1` [Example 3, 5-(3,4-dichlorophenoxy)-2-(pyridin-2-yl)-6-(trifluoromethyl)pyrimidin-4(3H)-one], for which the pIC50 at murine CCR2 [1] is 7.51; at human CCR2, 8.92; at murine CCR2 [2] it was 6.69.

As to `O=c1[nH]c(-c2ncc(F)cc2F)nc(C(F)(F)F)c1Oc1ccc(Cl)c(Cl)c1` [Example 4, 5-(3,4-dichlorophenoxy)-2-(3,5-difluoropyridin-2-yl)-6-(trifluoromethyl)pyrimidin-4(3H)-one], the pIC50 at murine CCR2 [1] was 7.06; against human CCR2, 8.54; on murine CCR2 [2] it was 6.42.

Regarding `O=c1[nH]c(-c2ncccc2Cl)nc(C(F)(F)F)c1Oc1ccc(Cl)c(Cl)c1` [Example 5, 2-(3-chloropyridin-2-yl)-5-(3,4-dichlorophenoxy)-6-(trifluoromethyl)pyrimidin-4(3H)-one], the negative-log IC50 (pIC50) at murine CCR2 [1] was 7.89; at human CCR2, 9.00; at murine CCR2 [2], 7.30.

As to `Cc1ccc(-c2nc(C(F)(F)F)c(Oc3ccc(Cl)c(Cl)c3)c(=O)[nH]2)nc1` [Example 7, 5-(3,4-dichlorophenoxy)-2-(5-methylpyridin-2-yl)-6-(trifluoromethyl)pyrimidin-4(3H)-one], the pIC50 was 6.92 at murine CCR2 [1], 8.66 on human CCR2 and 6.36 at murine CCR2 [2].

On to `O=c1[nH]c(-c2ncccc2Cl)nc(C(F)(F)F)c1Oc1ccc(Cl)c(F)c1` [Example 11, 5-(4-chloro-3-fluorophenoxy)-2-(3-chloropyridin-2-yl)-6-(trifluoromethyl)pyrimidin-4(3H)-one], for which the values for the pIC50 on murine CCR2 [1], on human CCR2 and at murine CCR2 [2] were 7.55, 8.37 and 6.71, respectively.

As to `O=c1[nH]c(-c2ncccc2Cl)nc(C(F)(F)F)c1Oc1ccc(F)c(Cl)c1` [Example 14, 5-(3-chloro-4-fluorophenoxy)-2-(3-chloropyridin-2-yl)-6-(trifluoromethyl)pyrimidin-4(3H)-one], the pIC50 at murine CCR2 [1] is 7.60; on human CCR2, 7.96; at murine CCR2 [2] it was 6.59.

For `O=c1[nH]c(-c2ncccc2F)nc(C(F)(F)F)c1Oc1ccc(Cl)c(Cl)c1` [Example 15, 5-(3,4-dichlorophenoxy)-2-(3-fluoropyridin-2-yl)-6-(trifluoromethyl)pyrimidin-4(3H)-one], the pIC50 was 7.52 at murine CCR2 [1], 8.70 on human CCR2 and 6.84 at murine CCR2 [2].

Turning to `O=c1[nH]c(Nc2cn[nH]c2)nc(C(F)(F)F)c1Oc1ccc(Cl)c(C(F)(F)F)c1` [Example 104, 5-[4-Chloro-3-(trifluoromethyl)phenoxy]-2-(1H-pyrazol-4-ylamino)-6-(trifluoromethyl)pyrimidin-4(3H)-one], the pIC50 is 6.80 on murine CCR2 [1] and 8.03 at human CCR2.

With `O=c1[nH]c(Nc2cn[nH]c2)nc(C(F)(F)F)c1Cc1ccc(Cl)c(C(F)(F)F)c1` [Example 105], the results for the pIC50 at murine CCR2 [1] and against human CCR2 were 6.42 and 7.39, respectively.

Regarding `Cn1cnc(Nc2nc(C(F)(F)F)c(Oc3ccc(Cl)c(Cl)c3)c(=O)[nH]2)n1` [Example 106, 5-(3,4-dichlorophenoxy)-2-[(1-methyl-1H-1,2,4-triazol-3-yl)amino]-6-(trifluoromethyl)pyrimidin-4(3H)-one], the pIC50 was 5.85 at murine CCR2 [1] and 6.74 at human CCR2.

On to `Cc1cc(Nc2nc(C(F)(F)F)c(Oc3ccc(Cl)c(Cl)c3)c(=O)[nH]2)on1` [Example 109], for which the pIC50 on murine CCR2 [1] is 6.32; on human CCR2, 7.23.

For `Cn1cc(Nc2nc(C(F)(F)F)c(Oc3ccc(Cl)c(Cl)c3)c(=O)[nH]2)cn1` [Example 110, 5-(3,4-dichlorophenoxy)-2-[(1-methyl-1H-pyrazol-4-yl)amino]-6-(trifluoromethyl)pyrimidin-4(3H)-one], the pIC50 was 6.14 at murine CCR2 [1] and 7.39 against human CCR2.

`O=C1NCCN1c1nc(C(F)(F)F)c(Cc2ccc(Cl)c(Cl)c2)c(=O)[nH]1` [Example 111, 5-(3,4-Dichlorobenzyl)-2-(2-oxoimidazolidin-1-yl)-6-(trifluoromethyl)pyrimidin-4(3H)-one]: the pIC50 is 6.44 at murine CCR2 [1] and 7.23 on human CCR2.

Take `O=C1OCCN1c1nc(C(F)(F)F)c(Cc2ccc(Cl)c(Cl)c2)c(=O)[nH]1` [Example 112, 5-(3,4-Dichlorobenzyl)-2-(2-oxo-1,3-oxazolidin-3-yl)-6-(trifluoromethyl)pyrimidin-4(3H)-one]: the values for the pIC50 on murine CCR2 [1] and on human CCR2 were 6.42 and 7.57, respectively.

As to `O=c1[nH]c(CC2CCOCC2)nc(C(F)(F)F)c1Cc1ccc(Cl)c(Cl)c1` [Example 171], the pIC50 was 6.00 at murine CCR2 [1] and 6.40 on human CCR2.

As to `O=c1[nH]c(Cc2cccs2)nc(C(F)(F)F)c1Cc1ccc(Cl)c(Cl)c1` [Example 172], the pIC50 on murine CCR2 [1] is 6.85; against human CCR2, 7.21.

Consider `O=c1[nH]c(Cn2cncn2)nc(C(F)(F)F)c1Cc1ccc(Cl)c(Cl)c1` [Example 173, 5-(3,4-dichlorobenzyl)-2-(1H-1,2,4-triazol-1-ylmethyl)-6-(trifluoromethyl)pyrimidin-4(3H)-one], for which the negative logarithm of the IC50 (pIC50) is 6.01 at murine CCR2 [1] and 6.59 on human CCR2.

In the case of `Cc1nc(Cc2nc(C(F)(F)F)c(Cc3ccc(Cl)c(Cl)c3)c(=O)[nH]2)cs1` [Example 174, 5-(3,4-dichlorobenzyl)-2-[(2-methyl-1,3-thiazol-4-yl)methyl]-6-(trifluoromethyl)pyrimidin-4(3H)-one], the pIC50 on murine CCR2 [1] was 5.96; at human CCR2, 6.82.

For `O=c1[nH]c(N2CCCC2)nc(C(F)(F)F)c1Cc1ccc(Cl)c(Cl)c1` [Example 175, 5-(3,4-dichlorobenzyl)-2-(pyrrolidin-1-yl)-6-(trifluoromethyl)pyrimidin-4(3H)-one], the figures for the pIC50 at murine CCR2 [1] and against human CCR2 were 5.85 and 6.44, respectively.

As to `CCOC(=O)C1CCN(c2nc(C(F)(F)F)c(Cc3ccc(Cl)c(Cl)c3)c(=O)[nH]2)CC1` [Example 176, ethyl 1-[5-(3,4-dichlorobenzyl)-6-oxo-4-(trifluoromethyl)-1,6-dihydropyrimidin-2-yl]piperidine-4-carboxylate], the pIC50 at murine CCR2 [1] is 6.34; against human CCR2, 7.35.

Take `COc1ccc2nc(-c3nc(C(F)(F)F)c(Oc4ccc(Cl)c(Cl)c4)c(=O)[nH]3)ccc2c1` [Example 177, 5-(3,4-dichlorophenoxy)-2-(6-methoxyquinolin-2-yl)-6-(trifluoromethyl)pyrimidin-4(3H)-one]: the pIC50 at murine CCR2 [1] was 5.82; against human CCR2 it was 7.29.

Take `O=c1[nH]c(-c2ccc3ccccc3n2)nc(C(F)(F)F)c1Oc1ccc(Cl)c(Cl)c1` [Example 178]: the pIC50 at murine CCR2 [1] is 6.27; on human CCR2 it was 7.48.

On to `O=c1[nH]c(NC2CCOC2)nc(C(F)(F)F)c1Oc1ccc(Cl)c(Cl)c1` (centres unmarked) [Example 245], for which the pIC50 at murine CCR2 [1] is 5.85; against human CCR2 it was 6.80.

`CCOC(=O)c1nc(-c2nc(C(F)(F)F)c(Oc3ccc(Cl)c(Cl)c3)c(=O)[nH]2)no1` [Example 260, Ethyl 3-[5-(3,4-dichlorophenoxy)-6-oxo-4-(trifluoromethyl)-1,6-dihydropyrimidin-2-yl]-1,2,4-oxadiazole-5-carboxylate x N,N-diisopropylethylamine]: the pIC50 at murine CCR2 [1] is 6.92; against human CCR2, 7.89.

As to `O=c1[nH]c(CN2CCOCC2)nc(C(F)(F)F)c1Cc1ccc(Cl)c(Cl)c1` [Example 261, 5-(3,4-Dichlorobenzyl)-2-(morpholin-4-ylmethyl)-6-(trifluoromethyl)pyrimidin-4(3H)-one], the pIC50 at murine CCR2 [1] was 6.20; at human CCR2 it was 6.44.

For the molecule `Cn1nc(Cc2nc(C(F)(F)F)c(Cc3ccc(Cl)c(Cl)c3)c(=O)[nH]2)[nH]c1=O` [Example 263, 5-(3,4-Dichlorobenzyl)-2-[(1-methyl-5-oxo-4,5-dihydro-1H-1,2,4-triazol-3-yl)methyl]-6-(trifluoromethyl)pyrimidin-4(3H)-one], the pIC50 on murine CCR2 [1] was 6.17; on human CCR2, 6.74.

The values above are taken from patent US20160237059A1, “HETEROCYCLIC SUBSTITUTED TRIFLUOROMETHYL PYRIMIDINONES AND THEIR USE” (BAYER PHARMA AKTIENGESELLSCHAFT, priority 2013, published 2016).
